Among the data in US9145351B2, “Azole derivatives, methods for producing the same, intermediate thereof, agro-horticultural agents” (KUREHA CORPORATION, priority 2009, dated 2015) are inhibition values, retold here.

Type in all cases: cell-based
In test [1] the test system is Phaeosphaeria nodorum. In words: Plate medium fungicidal assay, wheat Septoria nodorum blotch P.n (Experimental Example 5). To be noted: Parastagonospora nodorum. As to the method: (§1) In this Experimental Example, the fungicidal effects of the inventive compounds on various phytopathogenic fungi for plants and hazardous microorganism for industrial materials were examined by the methods described below. Each inventive compound was dissolved in 2 ml of dimethyl sulfoxide. 0.6 ml of this solution was added to 60 nil of a PDA medium (potato dextrose agar medium) at about 60 degrees C., which was mixed thoroughly in a 100-ml conical flask, and poured into a dish, where it was solidified, thereby obtaining a plate medium containing the inventive compound at 50 mg/L and 5 mg/L. On the other hand, a subject microorganism previously cultured on a plate medium was cut out using a cork borer whose diameter was 4 mm, and inoculated to the test compound-containing plate medium described above. […] The growth degree of the microorganism on the test compound-containing plate medium thus observed was compared with the growth degree of the microorganism in the untreated group, and % mycelial growth inhibition was calculated by the following equation. R=100(dc−dt)/dc wherein R=% mycelial extension inhibition, dc=flora diameter in untreated plate, dt=flora diameter in treated plate. The results obtained as described above were evaluated as one of the 5 grades according to the following criteria. […] Wheat Septoria nodorum blotch (Phaeosphaeria nodorum) P.n

Test [2] deals with Pseudocercoporella herpotrichoides. In words: Plate medium fungicidal assay, wheat eye spot P.h (Experimental Example 5). Here is the method: as §1, with “eye spot (Pseudocercoporella herpotrichoides) P.h” for “Septoria nodorum blotch (Phaeosphaeria nodorum) P.n”
The subject of test [3] is Fusarium graminearum. Description: microbe, parasite or virus in culture. As to conditions: Fusarium graminearum.
Test [4] concerns Ustilago nuda. Description: Plate medium fungicidal assay, barley loose smut U.n (Experimental Example 5). As to conditions: Ustilago nuda. Here is the method: as §1, with “Barley loose smut (Ustilago nuda) U.n” for “Wheat Septoria nodorum blotch (Phaeosphaeria nodorum) P.n”
Test [5] concerns Pyricularia oryzae. In words: microbe, parasite or virus in culture. As to conditions: Pyricularia oryzae.
The test system of test [6] is Sclerotinia sclerotiorum. In words: Plate medium fungicidal assay, Sclerotinia rot S.s (Experimental Example 5). To be noted: Sclerotinia sclerotiorum. Here is the method:
as §1, with “Sclerotinia rot (Sclerotinia sclerotiorum) S.s” for “Wheat Septoria nodorum blotch (Phaeosphaeria nodorum) P.n”

The subject of test [7] is Fusarium oxysporum. In words: Plate medium fungicidal assay, cucumber fusarium wilt F.c (Experimental Example 5). As to conditions: Fusarium oxysporum. Here is the method: as §1, with “Cucumber fusarium wilt (Fusarium oxysporum) F.c” for “Wheat Septoria nodorum blotch (Phaeosphaeria nodorum) P.n”
Setting [8] is: plate medium containing compound at 5 mg/L, read-out: Growth inhibition grade, P.n.
The mark [9] stands for this setting: plate medium containing compound at 50 mg/L, read-out: Growth inhibition grade, P.n.
[10] abbreviates: plate medium containing compound at 5 mg/L, read-out: Growth inhibition grade, P.h.
The mark [11] stands for this setting: plate medium containing compound at 50 mg/L, read-out: Growth inhibition grade, P.h.
[12] abbreviates: read-out: Growth inhibition grade, F.g.
Where [13] appears, read: read-out: growth inhibition grade F.g.
Setting [14] is: plate medium containing compound at 5 mg/L, read-out: Growth inhibition grade, U.n.
The mark [15] stands for this setting: plate medium containing compound at 50 mg/L, read-out: Growth inhibition grade, U.n.
The mark [16] stands for this setting: read-out: Growth inhibition grade, P.o.
Setting [17] is: read-out: growth inhibition grade P.o.
Setting [18] is: plate medium containing compound at 5 mg/L, read-out: Growth inhibition grade, S.s.
Setting [19] is: plate medium containing compound at 50 mg/L, read-out: Growth inhibition grade, S.s.
Setting [20] is: plate medium containing compound at 5 mg/L, read-out: Growth inhibition grade, F.c.
Setting [21] is: plate medium containing compound at 50 mg/L, read-out: Growth inhibition grade, F.c.

Like-named read-outs stand apart in the source and are kept apart here. Where only a bound is given, the exact number is not on record here.

With `C[C@]1(CCl)CC[C@@H](Cc2ccc(Cl)cc2)[C@]1(O)Cn1cncn1` (racemic) [Compound I-1, (1RS,2SR,5SR)-5-(4-chlorobenzyl)-2-chloromethyl-2-methyl-1-(1H-1,2,4-triazol-1-ylmethyl)cyclopentanol], the inhibition at 5 µg/mL in test [1] (setting [8]) is greater than 80%; in test [1] (plate medium, 5 mg/L, read-out: growth inhibition grade P.n), greater than 80%; in test [2] (setting [10]) it was greater than 80%; in test [2] (plate medium, 5 mg/L, read-out: growth inhibition grade P.h), greater than 80%; in test [3] (setting [12]), greater than 80%; in test [3] (setting [13]), greater than 80%. Besides, the inhibition at 5 µg/mL in test [4] (setting [14]) is greater than 80%; in test [4] (plate medium, 5 mg/L, read-out: growth inhibition grade U.n), greater than 80%; in test [5] (setting [16]), greater than 80%; in test [5] (setting [17]), greater than 80%; in test [6] (setting [18]), greater than 80%; in test [6] (plate medium, 5 mg/L, read-out: growth inhibition grade S.s), greater than 80%. Also, the inhibition at 5 µg/mL in test [7] (setting [20]) is greater than 80%; in test [7] (plate medium, 5 mg/L, read-out: growth inhibition grade F.c), greater than 80%. Besides, the inhibition at 50 µg/mL was greater than 80% in test [1] (setting [9]); greater than 80% in test [1] (plate medium, 50 mg/L, read-out: growth inhibition grade P.n); greater than 80% in test [2] (setting [11]); greater than 80% in test [2] (plate medium, 50 mg/L, read-out: growth inhibition grade P.h); greater than 80% in test [3] (setting [12]); greater than 80% in test [3] (setting [13]). Further, the inhibition at 50 µg/mL in test [4] (setting [15]) is greater than 80%; in test [4] (plate medium, 50 mg/L, read-out: growth inhibition grade U.n), greater than 80%; in test [5] (setting [16]), greater than 80%; in test [5] (setting [17]) it was greater than 80%; in test [6] (setting [19]) it was greater than 80%; in test [6] (plate medium, 50 mg/L, read-out: growth inhibition grade S.s) it was greater than 80%. In addition, the inhibition at 50 µg/mL was greater than 80% in test [7] (setting [21]) and greater than 80% in test [7] (plate medium, 50 mg/L, read-out: growth inhibition grade F.c).
Turning to `CC(Cl)=C[C@@]1(C)CC[C@@H](Cc2ccc(Cl)cc2)[C@]1(O)Cn1cncn1` (racemic) [Compound I-15, (1RS,2RS,5SR)-5-(4-chlorobenzyl)-2-(2-chloropropenyl)-2-methyl-1-(1H-1,2,4-triazol-1-ylmethyl)cyclopentanol], the inhibition at 5 µg/mL in test [1] (setting [8]), in test [2] (setting [10]), in test [3] (setting [12]), in test [4] (setting [14]), in test [5] (setting [16]) and in test [6] (setting [18]) was greater than 80% throughout. In addition, the inhibition at 5 µg/mL in test [7] (setting [20]) is greater than 80%. For the same molecule, the inhibition at 50 µg/mL in test [1] (setting [9]), in test [2] (setting [11]), in test [3] (setting [12]), in test [4] (setting [15]), in test [5] (setting [16]) and in test [6] (setting [19]) was greater than 80% in each case. Also, the inhibition at 50 µg/mL in test [7] (setting [21]) was greater than 80%.
As to `C[C@]1(CBr)CC[C@@H](Cc2ccc(Cl)cc2)[C@]1(O)Cn1cncn1` (racemic) [Compound I-25, (1RS,2SR,5SR)-2-bromomethyl-5-(4-chlorobenzyl)-2-methyl-1-(1H-1,2,4-triazol-1-ylmethyl)cyclopentanol], the inhibition at 5 µg/mL was 60 to 80% in test [1] (setting [8]); 40 to 60% in test [2] (setting [10]); greater than 80% in test [3] (setting [12]); 40 to 60% in test [4] (setting [14]); greater than 80% in test [5] (setting [16]); greater than 80% in test [6] (setting [18]). For the same molecule, the inhibition at 5 µg/mL in test [7] (setting [20]) was greater than 80%. Further, the inhibition at 50 µg/mL in test [1] (setting [9]), in test [2] (setting [11]), in test [3] (setting [12]), in test [4] (setting [15]), in test [5] (setting [16]) and in test [6] (setting [19]) was greater than 80% in each case. In addition, the inhibition at 50 µg/mL in test [7] (setting [21]) was greater than 80%.
On to `CC[C@]1(CCl)CC[C@@H](Cc2ccc(Cl)cc2)[C@]1(O)Cn1cncn1` (racemic) [Compound I-36, (1RS,2SR,5SR)-5-(4-chlorobenzyl)-2-chloromethyl-2-ethyl-1-(1H-1,2,4-triazol-1-ylmethyl)cyclopentanol], for which the inhibition at 5 µg/mL is greater than 80% in test [1] (setting [8]); greater than 80% in test [2] (setting [10]); greater than 80% in test [3] (setting [12]); 60 to 80% in test [4] (setting [14]); greater than 80% in test [5] (setting [16]); greater than 80% in test [6] (setting [18]). Besides, the inhibition at 5 µg/mL in test [7] (setting [20]) was greater than 80%. Further, the inhibition at 50 µg/mL in test [1] (setting [9]), in test [2] (setting [11]), in test [3] (setting [12]), in test [4] (setting [15]), in test [5] (setting [16]) and in test [6] (setting [19]) was greater than 80% throughout. In addition, the inhibition at 50 µg/mL in test [7] (setting [21]) is greater than 80%.

What is called inhibition is how much of the control response was suppressed.
